In ChEMBL document CHEMBL1909046, “DrugMatrix in vitro pharmacology data”:

Tests used:
Melanocortin receptor 4 = Melanocortin receptor 4 (Homo sapiens, UniProt P32245); type: cell membranes, Membrane; settings: hek293; also: in other assays of this panel Not Active means under 50% inhibition at 10 µM
[1] = target: T1, Neuropeptide Y receptor type 1 (Homo sapiens, UniProt P25929); type: cell membranes, Membrane; settings: sk-n-mc; also: in other assays of this panel Not Active means under 50% inhibition at 10 µM
T1 sequence (P25929 whole entry): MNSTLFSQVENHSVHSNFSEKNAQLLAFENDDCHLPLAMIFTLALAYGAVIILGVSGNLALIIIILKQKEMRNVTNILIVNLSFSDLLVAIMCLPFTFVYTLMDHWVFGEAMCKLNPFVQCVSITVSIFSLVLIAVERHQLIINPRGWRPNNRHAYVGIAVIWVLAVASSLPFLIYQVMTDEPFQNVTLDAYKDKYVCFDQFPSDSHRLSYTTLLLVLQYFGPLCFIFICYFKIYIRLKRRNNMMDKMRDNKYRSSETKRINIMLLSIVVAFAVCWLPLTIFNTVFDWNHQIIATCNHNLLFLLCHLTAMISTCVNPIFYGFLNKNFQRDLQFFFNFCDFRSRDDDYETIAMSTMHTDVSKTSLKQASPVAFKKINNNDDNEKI

[2] = target: T2, C-X-C chemokine receptor type 1 (Homo sapiens, UniProt P25024); also: in other assays of this panel Not Active means under 50% inhibition at 10 µM
T2 sequence (P25024 whole entry): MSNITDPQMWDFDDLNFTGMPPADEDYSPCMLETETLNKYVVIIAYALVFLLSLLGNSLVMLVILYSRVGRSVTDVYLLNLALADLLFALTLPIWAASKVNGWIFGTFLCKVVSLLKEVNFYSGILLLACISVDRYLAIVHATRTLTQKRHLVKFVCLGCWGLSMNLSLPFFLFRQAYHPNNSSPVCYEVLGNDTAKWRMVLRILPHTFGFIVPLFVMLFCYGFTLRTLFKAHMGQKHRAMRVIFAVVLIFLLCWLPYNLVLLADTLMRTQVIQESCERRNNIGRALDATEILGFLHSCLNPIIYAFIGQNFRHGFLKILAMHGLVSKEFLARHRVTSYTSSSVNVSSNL

Adenosine receptor A3 = target: T3, Adenosine receptor A3 (Homo sapiens, UniProt P0DMS8); type: cell membranes, CHO-K1, Membrane;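 also: radioligand binding assay with AB-MECA serving as the labeled ligand; in other assays of this panel Not Active means under 50% inhibition at 10 µM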
T3 sequence (P0DMS8 whole entry): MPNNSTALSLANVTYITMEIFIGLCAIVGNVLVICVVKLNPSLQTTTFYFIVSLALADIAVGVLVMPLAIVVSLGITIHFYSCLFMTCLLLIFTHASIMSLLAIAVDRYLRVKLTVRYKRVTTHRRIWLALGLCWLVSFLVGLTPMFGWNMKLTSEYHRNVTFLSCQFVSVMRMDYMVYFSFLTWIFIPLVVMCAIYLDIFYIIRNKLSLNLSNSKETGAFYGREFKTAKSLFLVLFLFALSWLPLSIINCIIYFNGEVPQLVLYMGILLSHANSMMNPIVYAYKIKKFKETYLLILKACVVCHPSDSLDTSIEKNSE

[3] = DRUGMATRIX: Phosphodiesterase PDE4 enzyme inhibition (substrate: [3H]cAMP + cAMP); settings: u-937; Not Active = under 50% inhibition at 10 µM
[4] = target: T4, Polyunsaturated fatty acid lipoxygenase ALOX15 (Oryctolagus cuniculus, UniProt P12530); test: biochemical; type: tissue-based, Reticulocytes
T4 sequence (P12530 whole entry): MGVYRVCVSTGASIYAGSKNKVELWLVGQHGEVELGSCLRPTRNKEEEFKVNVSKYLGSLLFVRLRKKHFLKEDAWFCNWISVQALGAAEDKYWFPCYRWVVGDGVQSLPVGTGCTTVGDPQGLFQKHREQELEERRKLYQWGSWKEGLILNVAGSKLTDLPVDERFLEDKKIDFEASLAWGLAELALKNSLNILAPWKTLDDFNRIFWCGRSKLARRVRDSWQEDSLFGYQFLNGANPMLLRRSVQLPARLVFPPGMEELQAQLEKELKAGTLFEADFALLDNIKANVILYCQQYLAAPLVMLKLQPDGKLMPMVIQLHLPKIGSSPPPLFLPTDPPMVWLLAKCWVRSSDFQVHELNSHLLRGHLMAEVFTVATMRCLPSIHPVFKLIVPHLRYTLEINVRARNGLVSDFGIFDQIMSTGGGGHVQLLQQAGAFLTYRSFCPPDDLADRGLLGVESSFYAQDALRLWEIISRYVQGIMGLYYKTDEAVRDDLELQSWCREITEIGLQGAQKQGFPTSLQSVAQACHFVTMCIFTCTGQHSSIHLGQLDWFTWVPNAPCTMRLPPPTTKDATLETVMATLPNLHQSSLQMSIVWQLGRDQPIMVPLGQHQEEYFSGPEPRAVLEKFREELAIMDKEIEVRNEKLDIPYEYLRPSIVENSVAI

[5] = target: C-C chemokine receptor type 2 (Homo sapiens, UniProt P41597); type: cell membranes, CHO-K1, Membrane; settings: cho-k1; also: in other assays of this panel Not Active means under 50% inhibition at 10 µM
Chain of C-C chemokine receptor type 2 (P41597 whole entry): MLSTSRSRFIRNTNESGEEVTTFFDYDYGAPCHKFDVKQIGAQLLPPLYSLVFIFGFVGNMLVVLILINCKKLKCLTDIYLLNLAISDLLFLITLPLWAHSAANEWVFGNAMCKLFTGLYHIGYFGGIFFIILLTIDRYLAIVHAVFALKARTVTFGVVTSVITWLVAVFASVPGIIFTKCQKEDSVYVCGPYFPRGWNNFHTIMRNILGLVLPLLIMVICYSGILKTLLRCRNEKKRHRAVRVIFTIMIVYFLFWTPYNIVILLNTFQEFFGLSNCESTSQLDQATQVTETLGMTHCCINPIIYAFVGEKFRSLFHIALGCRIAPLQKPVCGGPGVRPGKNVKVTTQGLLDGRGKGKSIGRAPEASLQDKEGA

Chain of Melanocortin receptor 4 (P32245 whole entry): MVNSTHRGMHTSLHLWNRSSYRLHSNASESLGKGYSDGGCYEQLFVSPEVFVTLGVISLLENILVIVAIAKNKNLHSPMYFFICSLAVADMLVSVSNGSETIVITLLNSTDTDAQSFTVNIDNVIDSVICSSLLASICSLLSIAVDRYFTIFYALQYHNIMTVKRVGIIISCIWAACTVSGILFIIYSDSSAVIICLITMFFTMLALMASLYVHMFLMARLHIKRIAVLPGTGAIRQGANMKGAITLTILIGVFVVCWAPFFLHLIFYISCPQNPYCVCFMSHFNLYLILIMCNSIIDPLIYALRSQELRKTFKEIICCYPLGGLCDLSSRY

| Compound | IC50 (Melanocortin receptor 4) | IC50 [1] | IC50 [2] | IC50 (Adenosine receptor A3; cho-k1) | IC50 [3] | Ki [3] | IC50 ([4]; reticulocytes) | IC50 [5] | Ki (Melanocortin receptor 4) | Ki [1] | Ki [2] | Ki (Adenosine receptor A3; cho-k1) | Ki ([4]; reticulocytes) | Ki [5] | IC50 ([4]; read-out: IC50) [nM] | IC50 (Adenosine receptor A3; read-out: IC50) [nM] | Ki (Adenosine receptor A3; read-out: Ki) [nM] |
| --- | --- | --- | --- | --- | --- | --- | --- | --- | --- | --- | --- | --- | --- | --- | --- | --- | --- |
| Cc1ccnc2c1NC(=O)c1cccnc1N2C1CC1 [NEVIRAPINE] | Not Active | Not Active | Not Active | Not Active | Not Active | Not Active | Not Active | Not Active | – | – | – | – | – | – | – | – | – |
| COPPER(II) OXIDE | Not Active | Not Active | Not Active | Not Active | Not Active | Not Active | Not Active | Not Active | Not Active | Not Active | Not Active | Not Active | Not Active | Not Active | – | – | – |
| OC[C@H]1O[C@@H]2O[C@H]3[C@H](O)[C@@H](O)[C@@H](O[C@H]4[C@H](O)[C@@H](O)[C@@H](O[C@H]5[C@H](O)[C@@H](O)[C@@H](O[C@H]6[C@H](O)[C@@H](O)[C@@H](O[C@H]7[C@H](O)[C@@H](O)[C@@H](O[C@H]8[C@H](O)[C@@H](O)[C@@H](O[C@H]1[C@H](O)[C@H]2O)O[C@@H]8CO)O[C@@H]7CO)O[C@@H]6CO)O[C@@H]5CO)O[C@@H]4CO)O[C@@H]3CO [BETADEX] | Not Active | Not Active | Not Active | Not Active | Not Active | Not Active | Not Active | Not Active | – | – | – | – | – | – | – | – | – |
| O=C(O)CO [GLYCOLIC ACID] | Not Active | Not Active | Not Active | Not Active | Not Active | Not Active | Not Active | Not Active | – | – | – | – | – | – | – | – | – |
| COc1cc(NC(C)CCCN)c2ncccc2c1 (centres undefined) [PRIMAQUINE] | Not Active | Not Active | Not Active | Not Active | Not Active | Not Active | Not Active | Not Active | – | – | – | – | – | – | – | – | – |
| COc1ccc(Cl)cc1C(=O)NCCc1ccc(S(=O)(=O)NC(=O)NC2CCCCC2)cc1 [GLYBURIDE] | Not Active | Not Active | Not Active | Not Active | Not Active | Not Active | Not Active | Not Active | – | – | – | – | – | – | – | – | – |
| CCO [ALCOHOL] | Not Active | Not Active | Not Active | Not Active | Not Active | Not Active | Not Active | Not Active | – | – | – | – | – | – | – | – | – |
| CC(C)(c1ccc(O)cc1)c1ccc(O)cc1 [BISPHENOL A] | Not Active | Not Active | Not Active | Not Active | Not Active | Not Active | – | Not Active | – | – | – | – | – | – | 1300 | – | – |
| CC12CCC(CC1=O)C2(C)C (centres undefined) [CAMPHOR] | Not Active | Not Active | Not Active | Not Active | Not Active | Not Active | Not Active | Not Active | – | – | – | – | – | – | – | – | – |
| O=C(O)c1ccccc1 [BENZOIC ACID] | Not Active | Not Active | Not Active | Not Active | Not Active | Not Active | Not Active | Not Active | – | – | – | – | – | – | – | – | – |
| Oc1ncnc2[nH]ncc12 [ALLOPURINOL] | Not Active | Not Active | Not Active | Not Active | Not Active | Not Active | Not Active | Not Active | – | – | – | – | – | – | – | – | – |
| NC(=O)CN1CCCC1=O | Not Active | Not Active | Not Active | Not Active | Not Active | Not Active | Not Active | Not Active | – | – | – | – | – | – | – | – | – |
| C=CCO [ALLYL ALCOHOL] | Not Active | Not Active | Not Active | Not Active | Not Active | Not Active | Not Active | Not Active | – | – | – | – | – | – | – | – | – |
| CCN1CCN(C(=O)N[C@@H](C(=O)N[C@@H]2C(=O)N3[C@@H]2SC(C)(C)[C@@H]3C(=O)O)c2ccccc2)C(=O)C1=O [PIPERACILLIN] | Not Active | Not Active | Not Active | Not Active | Not Active | Not Active | Not Active | Not Active | – | – | – | – | – | – | – | – | – |
| CCCCCCNC(=O)n1cc(F)c(=O)[nH]c1=O [CARMOFUR] | Not Active | Not Active | Not Active | Not Active | Not Active | Not Active | Not Active | Not Active | – | – | – | – | – | – | – | – | – |
| CCN(CCO)CCCC(C)Nc1ccnc2cc(Cl)ccc12 (centres undefined) [HYDROXYCHLOROQUINE] | Not Active | Not Active | Not Active | Not Active | Not Active | Not Active | Not Active | Not Active | – | – | – | – | – | – | – | – | – |
| Clc1cc(Cl)c(OCC#CI)cc1Cl [HALOPROGIN] | Not Active | Not Active | Not Active | – | Not Active | Not Active | Not Active | Not Active | – | – | – | – | – | – | – | 223 | 126 |
| O=c1[nH]cnc2c1ncn2[C@H]1CC[C@@H](CO)O1 [DIDANOSINE] | Not Active | Not Active | Not Active | Not Active | Not Active | Not Active | Not Active | Not Active | – | – | – | – | – | – | – | – | – |
| Cl.NC[C@H]1CC[C@H](C(=O)Oc2ccc(CCC(=O)O)cc2)CC1 [CETRAXATE HYDROCHLORIDE] | Not Active | Not Active | Not Active | Not Active | Not Active | Not Active | Not Active | Not Active | – | – | – | – | – | – | – | – | – |
| COc1cc([C@@H]2c3cc4c(cc3[C@H](O)[C@H]3COC(=O)[C@H]23)OCO4)cc(OC)c1OC [PODOFILOX] | Not Active | Not Active | Not Active | Not Active | Not Active | Not Active | Not Active | Not Active | – | – | – | – | – | – | – | – | – |
| COc1cc(/C=C/C(=O)O)ccc1O [FERULATE] | Not Active | Not Active | Not Active | Not Active | Not Active | Not Active | – | Not Active | – | – | – | – | – | – | 3980 | – | – |
| O=C(O)CCc1nc(-c2ccccc2)c(-c2ccccc2)o1 [OXAPROZIN] | Not Active | Not Active | Not Active | Not Active | Not Active | Not Active | Not Active | Not Active | – | – | – | – | – | – | – | – | – |
| c1ccc(Cn2ccnc2)cc1 | Not Active | Not Active | Not Active | Not Active | Not Active | Not Active | Not Active | Not Active | – | – | – | – | – | – | – | – | – |
| C[C@H]1C[C@H]2[C@@H]3CCC4=CC(=O)C=C[C@]4(C)[C@@]3(F)[C@@H](O)C[C@]2(C)[C@@]1(O)C(=O)CO [BETAMETHASONE] | Not Active | Not Active | Not Active | Not Active | Not Active | Not Active | Not Active | Not Active | – | – | – | – | – | – | – | – | – |
